From US20040180953A1, “Crystalline form of phenylethanolamine, the preparation thereof and pharmaceutical compositions comprising the same” (priority 2001, published 2004)
Structures can show the parent of a compound that is named as a salt. Each block holds one molecule with its values, some of them ahead of it.

Key:
Assay type in all cases: physicochemical
[1] = Drying comparison of wet filtration cake in an agitated filter drier
Description: The drying, in an agitated filter drier, of a wet filtration cake of SR58611A of A form results, in less than two hours, in a change in crystalline form and in the production of a cake composed of 90% of C form. To return to the A form, it is then necessary to continue the drying at a temperature of greater than 60° C. with agitation for approximately 48 h. […] Furthermore, the shape of the crystals obtained (thick hexagonal plates) makes it possible to reduce the residual moisture content of the filtration cake to contents of less than 20% and in fact facilitates the drying of the product for the purpose of its use as medicamental active principle.

[2] = Thermodynamic stability of the polymorphic forms maintained in solution or suspension; settings: room temperature, or more generally less than or equal to 70° C.; whatever the solvent; hydrochloride
Description: Furthermore, in addition to the possibility of having a purer and more homogeneous product, the B form can be obtained with better production efficiency, both with regard to crystallization and with regard to filtration and drying, in particular when it is prepared in propan-2-ol.

[3] = Kinetic conversion of SR58611A polymorphic mixture to B form in propan-2-ol suspension
Description: Polymorphic SR58611 hydrochloride (4.46 g) is suspended at ambient temperature in 0.3 litre of propan-2-ol. After maintaining for 70 h under isothermal conditions, the suspension is composed of SR58611A hydrochloride, B form, >96%. IR spectrum and X-ray diffraction are in agreement. Polymorphic SR58611 hydrochloride (95.2 g) is suspended at 70° C. in 0.3 litre of propan-2-ol. After maintaining for 12 h 30 under isothermal conditions, the suspension is composed of SR58611 hydrochloride, B form, >98%. IR spectrum and X-ray diffraction are in agreement.

C form content of the cake after change in crystalline form on drying ([1]; agitated filter drier, wet filtration cake, in less than two hours): 90%
further drying time needed to return to the A form ([1]; drying at greater than 60° C. with agitation): approximately 48 h
thermodynamic stability relative to the other polymorphs [2]: end up by being converted to the B form
SMILES: CCOC(=O)COc1ccc2c(c1)C[C@@H](NC[C@H](O)c1cccc(Cl)c1)CC2.Cl [A form, ethyl [(7S)-7-[(2R)-2-(3-chlorophenyl)-2-hydroxyethylamino]-5,6,7,8-tetrahydronaphth-2-yloxy]-acetate hydrochloride]

change of crystalline form on drying ([1]; drying of filtration cake): not changing crystalline form on drying
residual moisture content of the filtration cake ([1]; thick hexagonal plate crystals): less than 20%
thermodynamic stability relative to the other polymorphs [2]: the most thermodynamically stable form
SMILES: CCOC(=O)COc1ccc2c(c1)C[C@@H](NC[C@H](O)c1cccc(Cl)c1)CC2.Cl [B form, ethyl [(7S)-7-[(2R)-2-(3-chlorophenyl)-2-hydroxyethylamino]-5,6,7,8-tetrahydronaphth-2-yloxy]-acetate hydrochloride]

thermodynamic stability relative to the other polymorphs [2]: end up by being converted to the B form
SMILES: CCOC(=O)COc1ccc2c(c1)C[C@@H](NC[C@H](O)c1cccc(Cl)c1)CC2.Cl [C form, ethyl [(7S)-7-[(2R)-2-(3-chlorophenyl)-2-hydroxyethylamino]-5,6,7,8-tetrahydronaphth-2-yloxy]-acetate hydrochloride]

B form content of the suspension after conversion ([3]; suspended at 70° C. in propan-2-ol, 12 h 30 isothermal): > 98%
B form content of the suspension after conversion ([3]; suspended at ambient temperature in propan-2-ol, 70 h isothermal): > 96%
SMILES: CCOC(=O)COc1ccc2c(c1)C[C@@H](NC[C@H](O)c1cccc(Cl)c1)CC2 [Polymorphic SR58611 hydrochloride, N-[(2S)-7-ethoxycarbonylmethoxy-1,2,3,4-tetrahydronaphth-2-yl]-(2R)-(3-chlorophenyl)-2-hydroxyethanamine hydrochloride]
